pIC50: −log10 of the molar value. Where two headings read alike, the source gives them in different places.
Experiments:
human alpha PDGFR = biological target: T1, human alpha PDGFR (Homo sapiens, UniProt P16234); assay: alpha PDGFR autophosphorylation in 32D-αR cells; type: cell-based; details: for inhibition of protein kinase activity of αPDGFR: compounds of Table 1B, evaluated similar to Example 1
T1 construct: expressed in transfected cells; host or cells: 32D-αR (mouse hematopoietic cell line 32D)
From the text: The stimulation of cell proliferation by growth factors such as PDGF, FGF and EGF is dependent upon their induction of autophosphorylation of each of their respective receptor's tyrosine kinases. Therefore, the ability of a PTK inhibitor to block cellular proliferation induced by these growth factors is directly correlated with its ability to block receptor autophosphorylation. To measure alpha PDGFR autophosphorylation a previously described mouse hematopoietic cell line, 32D-αR, which had been engineered to overexpresses the human alpha PDGFR was used. These cells were grown in suspension to 10^6 cells/ml in RPMI (Gibco BRL) media containing 10% fetal bovine serum and 5% WEHI conditioned media (tissue culture media conditioned by WEHI cells available from ATCC) as previously described. The cells were pelleted by low speed centrifugation and resuspended in serum-free RPMI prior to distribution at 500,000 cells/well in 96 well conical bottom microtiter plates (Falcon). Compounds (0.01-30 μM) were added to the wells at room temperature 15 minutes prior to the addition of PDGF AA (15 ng/ml) and the incubation was continued on ice for 90 minutes in a final incubation volume of 100 μl. The cells were then pelleted at 2000 rpm for 10 minutes at 4° C. and 50 μl of freshly prepared lysis buffer (20 mM Tris at pH 7.3, 150 mM NaCl, 1% Triton X-100, 1 mM phenylmethyl-sulfonyl fluoride (PMSF), 1 mM sodium orthovanadate, […] and 10 mg/ml leupeptin) was added directly to each well, incubation was continued for 10 minutes on ice and cell lysis was facilitated by vigorous agitation on a plate shaker. The cell lysates were cleared by centrifugation at 2,000 rpm for 10 minutes prior to analysis.
In a separate microtiter plate, monoclonal antibodies (prepared at COR Therapeutics, Inc.) directed against the extracellular domain of the alpha PDGFR (MAb αR10) or the beta PDGFR (MAb 1B5B11) were immobilized by incubating 0.5 μg of antibody per well at 4° C. for 18 hours in 23 mM Tris at pH 8.0, 68 mM NaCl, 14 mM ammonium bicarbonate and 0.01% sodium azide. Unbound antibody was removed and the wells were blocked with 25 mM N-(2-hydroxyethyl)piperazine-N'-(2-ethanesulfonic acid) (HEPES) pH 7.6, 100 mM NaCl, and 0.2% Tween 20 just prior to the addition of cell lysate that had been diluted 1:2 in binding buffer (blocking buffer with 0.3% gelatin). 32D-αR or HR5-βR cell lysate was incubated with immobilized MAb αR10 or MAb 1B5B11, respectively, for 2 hours at room temperature and wells were washed 3 times with 200 μl of wash buffer (phosphate buffered saline "PBS", 0.01% Tween 20). […] Product formation was monitored at 650 nm using a microtiter plate reader (Molecular Devices).

human FGFR-1 = biological target: T2, human FGFR-1 (Homo sapiens, UniProt P11362); assay: FGFR-1 autophosphorylation in CHO cells; type: cell-based
T2 construct: expressed in transfected cells; host or cells: CHO
Description: In order to measure FGFR-1 autophosphorylation, the human FGFR-1 cDNA was stably over-expressed in CHO cells using standard techniques. These cells were grown to confluency in RPMI with 10% fetal bovine serum, the media was replaced with serum-free RPMI and incubation continued for 18 hours prior to stimulation with βFGF (75 ng/ml) for 10 min. at 37° C. in the absence or presence of PTK inhibitors in a concentration range of 0.1-30 μM. Cell lysates were prepared under the same conditions as described above for the EGFR assay. Lysates were incubated with a monoclonal antibody directed against the FGFR-1 extracellular domain (MAb 1H9D3 which was prepared at COR) and the immunoprecipitated receptor was subjected to SDS-PAGE and Western blot analysis with 4G10 horse radish peroxidase conjugated antiphosphotyrosine antibodies (UBI) and detection was done by chemiluminescence (Amersham).

32D-αR cells = assay: PDGF induced proliferation ([3H]thymidine incorporation) in 32D-αR cells; type: cell-based; details: Mus musculus
Description: Briefly, 32D-αR cells were grown in interleukin 3 (IL-3)-conditioned RPMI media with 10% fetal bovine serum and washed 2 times with RPMI with 10% fetal bovine serum, resuspended at 5×10^5 cells/ml in the same media and then dispensed at 250 μl/well in 24 well plates (Falcon). […] The cells were incubated for 43 hours followed for a further 3 hour incubation with [^3 H]thymidine (10 μCi/well). The cells are then harvested with an automated cell harvester, filters are placed in liquid scintillation mixture and counted in a β counter.

CCD18 cells = assay: inhibition of cell proliferation under normal tissue culture conditions, CCD18; type: cell-based; details: Homo sapiens, 96 h, read-out: IC50 CCD18
src-kinase = src-kinase (Homo sapiens, UniProt P12931); assay: inhibition of recombinant c-src kinase; details: for potency on src kinase activity compared with PDGFR kinase activity: src vs PDGFR
Protein Kinase A (PKA) = Protein Kinase A (PKA) (Homo sapiens, UniProt P17612); assay: Protein Kinase A assay (non-radioactive)
Protein Kinase C (PKC) = assay: Protein Kinase C assay (non-radioactive); details: 40 μM
human beta PDGFR = human beta PDGFR (Homo sapiens, UniProt P09619); assay: beta PDGFR autophosphorylation in HR5-βR cells; details: for inhibition of protein kinase activity of βPDGFR: compounds of Table 1B, evaluated similar to Example 1
WS1 cells = assay: inhibition of cell proliferation under normal tissue culture conditions, WS1; details: Homo sapiens, WS1, 96 h, read-out: IC50 WS1
HS27 cells = assay: inhibition of cell proliferation under normal tissue culture conditions, HS27; details: Homo sapiens, HS27, 96 h, read-out: IC50 HS27
HS68 cells = assay: inhibition of cell proliferation under normal tissue culture conditions, HS68; details: Homo sapiens, Hs68, 96 h, read-out: IC50 HS68
HR5-βR cells = assay: inhibition of cell proliferation under normal tissue culture conditions, HR5-βR; details: for pIC50: Cricetulus griseus
Description: The effect of these compounds on normal cell growth was also evaluated with HR5-βR cells which were previously used to measure beta PDGFR autophosphorylation.

[1] = test system: human cell lines (HS68, HS 27, CCD18, WS1); assay: inhibition of proliferation of human cell lines under standard tissue culture conditions (collective statement)
EGFR = EGFR (Homo sapiens, UniProt P00533); assay: EGFR autophosphorylation in MDA MB 468 cells; type: cell-based; details: EGF 100 ng/ml
Chain of EGFR (P00533 25-1210): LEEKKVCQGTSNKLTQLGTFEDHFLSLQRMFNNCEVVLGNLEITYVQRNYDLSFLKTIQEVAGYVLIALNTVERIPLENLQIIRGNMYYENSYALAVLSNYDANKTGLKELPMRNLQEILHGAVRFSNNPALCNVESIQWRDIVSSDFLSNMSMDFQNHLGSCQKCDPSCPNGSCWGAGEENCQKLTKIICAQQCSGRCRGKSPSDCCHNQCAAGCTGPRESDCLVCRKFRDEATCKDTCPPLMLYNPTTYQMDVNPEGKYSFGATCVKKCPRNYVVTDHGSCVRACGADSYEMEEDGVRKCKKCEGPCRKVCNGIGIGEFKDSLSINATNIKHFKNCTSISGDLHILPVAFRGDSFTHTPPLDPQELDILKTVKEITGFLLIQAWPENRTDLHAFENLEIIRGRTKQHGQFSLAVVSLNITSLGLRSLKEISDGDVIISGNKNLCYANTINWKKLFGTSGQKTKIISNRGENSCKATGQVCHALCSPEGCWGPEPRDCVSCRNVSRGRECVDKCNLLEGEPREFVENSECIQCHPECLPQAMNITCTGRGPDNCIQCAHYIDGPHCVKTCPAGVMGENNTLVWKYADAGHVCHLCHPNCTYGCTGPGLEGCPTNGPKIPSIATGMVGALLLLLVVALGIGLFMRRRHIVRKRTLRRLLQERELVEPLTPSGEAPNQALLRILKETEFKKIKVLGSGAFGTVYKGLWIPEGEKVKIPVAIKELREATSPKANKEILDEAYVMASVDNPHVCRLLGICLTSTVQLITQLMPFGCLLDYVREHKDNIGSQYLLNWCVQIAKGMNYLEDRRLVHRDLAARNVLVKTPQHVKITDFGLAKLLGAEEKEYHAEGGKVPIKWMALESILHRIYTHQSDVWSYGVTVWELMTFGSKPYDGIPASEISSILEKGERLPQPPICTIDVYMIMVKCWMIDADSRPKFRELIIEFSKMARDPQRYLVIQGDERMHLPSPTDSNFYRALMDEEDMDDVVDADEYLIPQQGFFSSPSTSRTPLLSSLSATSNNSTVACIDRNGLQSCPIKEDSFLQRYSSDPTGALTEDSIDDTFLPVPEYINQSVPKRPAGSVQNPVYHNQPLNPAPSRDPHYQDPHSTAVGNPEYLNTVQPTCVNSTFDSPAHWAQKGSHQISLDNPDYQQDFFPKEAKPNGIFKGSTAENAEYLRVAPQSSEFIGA
Description: These cells were grown to confluency in 6-well plates and incubated in serum-free Dulbecco's Modified Eagle Medium (DMEM) 18 hours. The cells were exposed to various concentrations (0.01-30 μM) of compounds for 15 minutes and then to EGF (100 ng/ml) for 10 minutes at 37° C. The cells were scraped and lysates were prepared in the same buffer as described for 32D-αR cells prior to fractionation by conventional SDS PAGE followed by Western blot analysis. For this, proteins were transferred onto nitrocellulose and the membrane was blocked in Tris buffer saline (TBS), pH 7.0, 0.1% Tween 20, 5% dry milk. The membrane was blotted with anti-phosphotyrosine antibody (UBI, 1 μg/ml) in binding buffer (TBS, 0.1% Tween 20; 1% dry milk) for 2 hours at room temperature. Detection was performed using a goat anti-rabbit-horseradish peroxidase conjugated IgG (Boehringer Mannheim). The blot was developed using a chemiluminescent system (Amersham).

Chain of src-kinase (P12931 whole entry): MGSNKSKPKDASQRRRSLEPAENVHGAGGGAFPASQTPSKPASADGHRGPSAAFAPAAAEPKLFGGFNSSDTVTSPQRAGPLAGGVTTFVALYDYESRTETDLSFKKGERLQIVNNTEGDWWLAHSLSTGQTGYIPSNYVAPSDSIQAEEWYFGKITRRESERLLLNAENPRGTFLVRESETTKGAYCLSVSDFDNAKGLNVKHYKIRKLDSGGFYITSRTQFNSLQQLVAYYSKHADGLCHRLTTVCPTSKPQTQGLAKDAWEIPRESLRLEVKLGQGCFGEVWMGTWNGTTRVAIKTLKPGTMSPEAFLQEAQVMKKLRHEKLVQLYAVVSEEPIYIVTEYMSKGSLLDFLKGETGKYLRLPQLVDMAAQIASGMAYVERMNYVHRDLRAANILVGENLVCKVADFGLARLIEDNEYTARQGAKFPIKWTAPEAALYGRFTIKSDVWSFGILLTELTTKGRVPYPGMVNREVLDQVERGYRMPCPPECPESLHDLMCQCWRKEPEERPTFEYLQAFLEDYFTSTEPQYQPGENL
T1 sequence (P16234 24-1089): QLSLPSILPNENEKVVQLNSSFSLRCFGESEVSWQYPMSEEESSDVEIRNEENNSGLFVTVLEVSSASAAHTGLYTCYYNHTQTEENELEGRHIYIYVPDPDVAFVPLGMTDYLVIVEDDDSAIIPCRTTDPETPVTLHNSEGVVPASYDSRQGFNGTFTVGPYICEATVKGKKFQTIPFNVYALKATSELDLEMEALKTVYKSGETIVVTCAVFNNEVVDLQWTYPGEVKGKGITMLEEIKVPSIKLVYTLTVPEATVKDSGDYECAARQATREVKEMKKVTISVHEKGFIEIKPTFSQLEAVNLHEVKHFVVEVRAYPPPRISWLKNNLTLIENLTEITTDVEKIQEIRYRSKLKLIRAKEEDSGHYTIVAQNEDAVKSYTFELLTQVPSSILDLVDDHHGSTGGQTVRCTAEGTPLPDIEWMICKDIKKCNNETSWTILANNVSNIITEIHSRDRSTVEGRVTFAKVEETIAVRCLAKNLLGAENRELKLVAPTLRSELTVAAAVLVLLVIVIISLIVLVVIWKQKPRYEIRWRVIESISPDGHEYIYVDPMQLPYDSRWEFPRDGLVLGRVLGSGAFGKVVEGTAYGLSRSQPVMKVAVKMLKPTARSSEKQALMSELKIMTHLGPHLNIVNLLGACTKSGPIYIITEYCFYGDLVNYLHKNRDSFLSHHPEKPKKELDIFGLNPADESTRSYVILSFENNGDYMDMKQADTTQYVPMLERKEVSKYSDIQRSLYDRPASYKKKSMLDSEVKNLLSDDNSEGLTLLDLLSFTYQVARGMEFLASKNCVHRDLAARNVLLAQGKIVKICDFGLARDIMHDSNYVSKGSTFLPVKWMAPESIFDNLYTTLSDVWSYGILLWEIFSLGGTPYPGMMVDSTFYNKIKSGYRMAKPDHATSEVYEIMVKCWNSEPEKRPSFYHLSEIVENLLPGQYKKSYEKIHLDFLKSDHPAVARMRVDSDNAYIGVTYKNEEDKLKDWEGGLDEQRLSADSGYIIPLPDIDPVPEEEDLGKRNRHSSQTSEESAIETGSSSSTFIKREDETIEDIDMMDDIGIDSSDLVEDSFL
Chain of human beta PDGFR (P09619 33-1106): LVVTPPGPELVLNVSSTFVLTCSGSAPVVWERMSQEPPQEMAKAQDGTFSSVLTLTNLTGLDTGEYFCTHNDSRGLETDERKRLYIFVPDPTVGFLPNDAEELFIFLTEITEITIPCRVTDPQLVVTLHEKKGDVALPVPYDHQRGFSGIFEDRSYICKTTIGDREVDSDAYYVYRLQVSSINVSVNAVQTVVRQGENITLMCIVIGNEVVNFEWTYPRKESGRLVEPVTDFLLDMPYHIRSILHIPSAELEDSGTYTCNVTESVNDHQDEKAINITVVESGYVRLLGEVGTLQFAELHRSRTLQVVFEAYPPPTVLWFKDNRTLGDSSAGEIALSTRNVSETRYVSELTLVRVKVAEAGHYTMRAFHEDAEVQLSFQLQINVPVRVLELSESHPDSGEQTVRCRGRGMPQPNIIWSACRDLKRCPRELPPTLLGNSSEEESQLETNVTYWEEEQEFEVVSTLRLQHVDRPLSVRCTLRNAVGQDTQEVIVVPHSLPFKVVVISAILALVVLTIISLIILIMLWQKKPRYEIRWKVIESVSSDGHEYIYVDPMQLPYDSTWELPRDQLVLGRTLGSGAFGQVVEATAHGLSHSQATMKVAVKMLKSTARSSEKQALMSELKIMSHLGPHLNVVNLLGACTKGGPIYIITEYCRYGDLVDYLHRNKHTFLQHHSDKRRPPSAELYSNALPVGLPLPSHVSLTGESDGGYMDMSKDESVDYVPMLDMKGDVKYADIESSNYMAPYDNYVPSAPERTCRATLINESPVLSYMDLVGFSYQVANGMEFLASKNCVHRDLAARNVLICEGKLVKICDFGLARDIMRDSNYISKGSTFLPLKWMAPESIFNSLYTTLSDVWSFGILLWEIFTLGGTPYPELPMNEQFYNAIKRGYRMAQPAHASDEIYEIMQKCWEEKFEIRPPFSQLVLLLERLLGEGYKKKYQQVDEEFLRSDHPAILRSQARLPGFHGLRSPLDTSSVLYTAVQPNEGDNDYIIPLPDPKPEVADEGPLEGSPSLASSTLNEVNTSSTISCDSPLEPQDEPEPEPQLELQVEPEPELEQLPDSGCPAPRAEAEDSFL
T2 sequence (P11362 22-822): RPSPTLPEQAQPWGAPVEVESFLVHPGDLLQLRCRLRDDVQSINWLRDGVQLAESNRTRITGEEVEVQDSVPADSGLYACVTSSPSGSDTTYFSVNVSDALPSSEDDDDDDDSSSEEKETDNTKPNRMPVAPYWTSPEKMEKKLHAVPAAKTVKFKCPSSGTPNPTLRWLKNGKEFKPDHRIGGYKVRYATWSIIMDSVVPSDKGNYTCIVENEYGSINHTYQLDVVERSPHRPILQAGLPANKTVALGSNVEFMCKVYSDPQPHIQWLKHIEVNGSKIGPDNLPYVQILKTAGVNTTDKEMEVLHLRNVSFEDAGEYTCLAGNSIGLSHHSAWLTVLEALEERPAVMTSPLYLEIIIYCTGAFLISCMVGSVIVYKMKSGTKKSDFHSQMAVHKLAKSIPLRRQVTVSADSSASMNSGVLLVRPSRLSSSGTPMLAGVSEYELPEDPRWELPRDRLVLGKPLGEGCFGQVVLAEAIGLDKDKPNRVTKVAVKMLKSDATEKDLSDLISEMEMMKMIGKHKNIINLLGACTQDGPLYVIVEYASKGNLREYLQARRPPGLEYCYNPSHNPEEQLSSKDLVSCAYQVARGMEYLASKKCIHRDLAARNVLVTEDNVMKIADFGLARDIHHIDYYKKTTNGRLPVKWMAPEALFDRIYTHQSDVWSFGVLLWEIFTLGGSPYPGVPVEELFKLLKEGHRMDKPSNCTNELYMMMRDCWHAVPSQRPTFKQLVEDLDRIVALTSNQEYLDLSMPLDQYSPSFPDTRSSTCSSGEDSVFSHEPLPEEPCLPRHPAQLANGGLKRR

For O=C(Nc1cc(-c2ccccc2)[nH]n1)c1ccccc1 [Compound 1, 3-benzoylamino-5-phenylpyrazole], the pIC50 (human alpha PDGFR; Table 2, autophosphorylation, 32D-αR cells, PDGF AA 15 ng/ml, read-out: IC50 αPDGFR) was 6.77, the “inhibition of alpha PDGFR autophosphorylation” value (human alpha PDGFR; compared with beta receptor) was “inhibit alpha PDGFR autophosphorylation over the same concentration range as that observed for the beta receptor” and the pIC50 (human FGFR-1; Table 2, autophosphorylation, CHO cells, βFGF 75 ng/ml) was < 4.52. For the same molecule, the “inhibition of FGFR-1 autophosphorylation” value (human FGFR-1; concentrations as high as 30 μM) was “no detectable inhibition”, the pIC50 (32D-αR cells; read-out: concentration blocking PDGF induced thymidine incorporation by 50%) was 6.15 and the IC100 (32D-αR cells; PDGF AA 30 ng/ml, FIG. 2, read-out: concentrations at which mitogenicity was completely inhibited) was > 1 µM. For the same molecule, the pIC50 (CCD18 cells) was < 4.52, the pIC50 (src-kinase) was 5.10 and the “potency on src kinase activity compared with PDGFR kinase activity” value (from here on “potency … compared with PDGFR kinase activity”) (src-kinase) was “selective for inhibiting PDGFR kinase activity”. The pIC50 (Protein Kinase A (PKA)) was < 4.40, the inhibition at 40 µM (Protein Kinase A (PKA); read-out: reduction in PKA activity) was < 50% and the “reduction in PKC activity” value (Protein Kinase C (PKC)) was < 50%. The pIC50 (human beta PDGFR) was 6.66, the IC (maximal) (human beta PDGFR; read-out: concentration at which inhibition of beta PDGFR autophosphorylation was maximal) was 5 µM and the pIC50 (WS1 cells) was < 4.52. The pIC50 (HS27 cells) was < 4.52, the pIC50 (HS68 cells) was < 4.52 and the pIC50 (HR5-βR cells; 96 h, read-out: IC50 HRS-βR) was 4.55. The inhibition at 30 µM ([1]; Homo sapiens, 96 h, read-out: decrease in cell growth of human cell lines) was 10 to 20% and the “decrease in cell growth of human cell lines” value ([1]; concentrations up to 10 μM) was “no decrease in cell growth”.

For O=C(Nc1cc(-c2ccc(Cl)cc2)n[nH]1)c1ccccc1 [Compound 45], the “inhibition of protein kinase activity of αPDGFR” value (human alpha PDGFR) was “exhibited the best activities” and the “inhibition of protein kinase activity of βPDGFR” value (human beta PDGFR) was “exhibited the best activities”.

For COC(=O)[C@@]1(O)C[C@H]2O[C@]1(C)n1c3ccccc3c3c4c(c5c6ccccc6n2c5c31)C(=O)NC4 [Compound K252a], the pIC50 (EGFR) was 6.00, the pIC50 (src-kinase; read-out: IC50 src-kinase, recombinant c-src, 50 μM ATP) was 7.70 and the pIC50 (src-kinase; read-out: src kinase IC50, recombinant c-src) was 7.70. The “potency … compared with PDGFR kinase activity” value (src-kinase) was “equally or more potent at inhibiting src kinase activity as they are PDGFR kinase activity”, the “HR5-βR growth inhibition compared with inhibition of PDGFR phosphorylation” value (HR5-βR cells) was “lower concentrations than those required to inhibit PDGFR phosphorylation” and the pIC50 (HR5-βR cells; 96 h, read-out: IC50 HRS-βR) was 6.89. For the same molecule, the pIC50 (HR5-βR cells; read-out: IC50 HR5-βR cell growth) was 6.89.

In the case of CN[C@@H]1C[C@H]2O[C@@](C)([C@@H]1OC)n1c3ccccc3c3c4c(c5c6ccccc6n2c5c31)C(=O)NC4 [Staurosporin, reference compound], the “potency … compared with PDGFR kinase activity” value (src-kinase) was “equally or more potent at inhibiting src kinase activity as they are PDGFR kinase activity” and the “growth of all of the human cell lines” value ([1]; 0.01 μM) was “completely blocked”.

O=C(Nc1cc(-c2cccs2)n[nH]1)c1ccccc1 [Compound 46] was tested, and the “inhibition of protein kinase activity of αPDGFR” value (human alpha PDGFR) was “exhibited the best activities” and the “inhibition of protein kinase activity of βPDGFR” value (human beta PDGFR) was “exhibited the best activities”.

From patent publication US5916908A, “Pharmaceutical pyrazole compositions useful as inhibitors of protein kinases” (COR Therapeutics, Inc., priority 1995, dated 1999)
